The structures appear in SMILES notation. Counter-ions that a name gives are not always drawn. Like-named read-outs stand apart in the source and are kept apart here.

Series [1] addresses T1, (recombinant) catalytic domain of human Bub1 (amino acids 704-1085) (Homo sapiens, UniProt O43683).
T1 construct: catalytic domain of human Bub1 (amino acids 704-1085); 6xHis (N); made in house; host or cells: Hi5 insect cells
As to the kind of experiment: Equilibrium probe competition assay (TR-FRET kinase binding assay). The conditions noted are these: read-out: IC50 (Assay 5, probe competition). The source says:
Equilibrium Probe Competition Assay:
Bub1 binding affinity of compounds described in the present invention were quantified using a time-resolved fluorescence energy transfer (TR-FRET) kinase binding assay which measures displacement of the synthetic fluorescent probe 5-[({2-[2-({2-[1-(4-ethoxy-2,6-difluorobenzyl)-1H-indazol-3-yl]-4-(pyridin-4-ylamino)pyrimidin-5-yl}oxy)ethoxy]ethyl}carbamothioyl)amino]-2-(6-hydroxy-3-oxo-3H-xanthen-9-yl)benzoic acid (5-5-1) by the (recombinant) catalytic domain of human Bub1 (amino acids 704-1085). The enzyme was expressed in Hi5 insect cells with N-terminal 6×His/AviTag@ seqences, purified by affinity-(Ni-NTA) and size exclusion chromatography and site-specific biotinylated ex-vivo using a commercially available kit (Avidity).
In a typical assay 11 different concentrations of each compound (0.1 nM, 0.33 nM, 1.1 nM, 3.8 nM, 13 nM, 44 nM, ˜0.15 μM, ˜0.51 μM, ˜1.7 μM, 5.9 μM and 20 μM) were tested in duplicate within the same microtiter plate. To this end, 100-fold concentrated compound solutions (in DMSO) were made by serial dilution (1:3.4) of freshly prepared 2 mM stocks in a clear low volume 384-well source microtiter plate (Greiner Bio-One, Frickenhausen, Germany), from which 50 nl of compounds were transferred into a black low volume test microtiter plate from the same supplier. Subsequently 2 μL of a solution containing biotinylated Bub1 (the final concentration of Bub1 was adjusted depending on the activity of the enzyme lot in order to be within the linear dynamic range of the assay: typically ˜200 pM were used) and 1 nM Streptavidin Terbium Cryptate (Cisbio, No. 610SATLB) in aqueous assay buffer [50 mM Tris/HCl pH 7.5, 200 mM potassium chloride (KCl), 1.0 mM dithiothreitol (DTT), 0.1 mM sodium ortho-vanadate, 1% (v/v) glycerol, 0.01% (w/v) bovine serum albumine (BSA), 0.005% (v/v) Triton X-100 (Sigma), were added to the compounds in the test plate and the mixture was incubated for 15 min at 22′C to allow pre-equilibration of the putative enzyme-inhibitor complexes before the start of the probe competition reaction, which was initiated by the addition of 3 μL 1.67-fold concentrated solution (in assay buffer) of 5-5-1 (final concentration: 1.5 nM). The resulting mixture (5 μL final volume) was Incubated at 220 during 0, 15, 30, 60, 120, 240 and 1440 min. After each time point the resonance energy transfer from the Streptavidin Tb cryptate to the 3′,6′-dihydroxy-3H-spiro[2-benzofuran-1,9′-xanthen]-3-one moiety of 5-5-1 was measured in order to quantify the amount of fluorescent probe displaced by the test compounds. To this end, the fluorescence emissions at 520 nm and 490 nm after excitation at 330-350 nm were measured in a Pherastar FS TR-FRET plate reader, (BMG Lab technologies, Offenburg, Germany) and the ratio of the emissions (520 nm/490 nm) was taken as Indicator for the amount of Bub1/5-5-1 equilibrium complexes. The data were normalized using two sets of control wells for high-(=enzyme reaction without inhibitor=0%=Minimum inhibition) and low-(=all assay components without enzyme=100%=Maximum inhibition) Bub1 activity. IC50 values were calculated by fitting the normalized inhibition data to a 4-parameter logistic equation (Minimum, Maximum, IC50, Hill; Y=Max+(Min−Max)/(1+(X/IC50)Hill)).
(Time-resolved FRET reads energy transfer from a long-lived donor to a nearby acceptor.)

A short description of series [2]: Stability in buffer at various pH values (HPLC detection). In kind it is physicochemical. Conditions: for recovery at 60 min, 0.2 mg/mL / recovery at 120 min, 0.2 mg/mL / recovery at 240 min, 0.2 mg/mL / recovery at 1440 min, 0.2 mg/mL: read-out: Recovery (Assay 6, prodrug stability); for Stability pH4: % Test Compound after 4 h [F(t = 4 h) × 100/F(t = 0 h)]: pH 4, 4 h; for Stability pH4: % Test Compound after 4 h [F(t = 4 h) × 100/F(t = 0 h)] / Stability pH7.4: % Test Compound after 4 h [F(t = 4 h) × 100/F(t = 0 h)]: 37° C., prodrug remaining; for Stability pH7.4: % Test Compound after 4 h [F(t = 4 h) × 100/F(t = 0 h)]: pH 7.4, 4 h. How it is done:
Stability in Buffer at Various pH Values (HPLC Detection)
0.3 mg of the test compound was solved in 0.1 ml dimethylsulfoxide and 0.4 ml acetonitrile. For complete dissolution the HPLC vial with the sample solution was sonified for about 20 seconds. Then 1.0 ml of the respective buffer solution was added and the sample was again treated in the ultrasonic bath.
Buffer Solutions Used: • pH 4.0: Fluka buffer, Order No. 33643 (11.76 g citric acid, 2.57 g sodium chloride and 2.72 g sodium hydroxide)
pH 7.4: 90 g of sodium chloride, 13.61 g of potassium dihydrogen phosphate and 83.35 g of 1 M sodium hydroxide solution were made up to 1 L with Millipore water and then diluted 1:10.
10 μl portions of the sample solution were analysed by HPLC at different times (0 h, 1 h, 2 h, 4 h and 24 h) at 37° C. The peak areas in percentage were used for quantification.
Agilent 1100 with DAD (G1315B), binary pump (G1312A), autosampler (G1329A), column oven (G1316A), thermostat (G1330B); column: Kromasil 100 C18, 250 mm×4 mm, 5 μm; column temperature: 37° C.; eluent A: water+5 ml of perchloric acid/litre, eluent B: acetonitrile.
The ratios of the peak area (F) at different times in relation to the peak area at the starting point are shown in Table 3 for representative examples: […]

Take `CCOc1cc(F)c(Cn2nc(-c3ncc(OCCCOC(=O)[C@H](C)NC(=O)[C@@H](N)CCCCN)c(Nc4ccnc(C(F)F)c4)n3)c3ccccc32)c(F)c1` [Example 4-1-1, 3-[(4-{[2-(difluoromethyl)pyridin-4-yl]amino}-2-[1-(4-ethoxy-2,6-difluorobenzyl)-1H-Indazol-3-yl]pyrimidin-5-yl)oxy]propyl L-lysyl-L-alaninate, salt with trifluoroaceticacid]: the IC50 in series [1] (Time 15 min) was found to be 1.4 nM; in series [1] (Time 30 min) it was 1.5 nM; in series [1] (Time 60 min) it was 1.4 nM; in series [1] (Time 90 min), 1.5 nM; in series [1] (Time 120 min), 1.3 nM; in series [1] (Time 240 min), 1.5 nM. Also, in series [1] (Time 1440 min), the IC50 came out at 2 nM. Further, the recovery at 60 min, 0.2 mg/mL in series [2] was found to be 76%. Also, the recovery at 120 min, 0.2 mg/mL in series [2] was 57%. Moreover, in series [2], the recovery at 240 min, 0.2 mg/mL worked out at 32%. The recovery at 1440 min, 0.2 mg/mL in series [2] is 0%. Further, the “Stability pH4: % Test Compound after 4 h [F(t = 4 h) × 100/F(t = 0 h)]” value (“Stability pH4: % Test Compound after 4 h” for short) in series [2] came out at 100%. Besides, the “Stability pH7.4: % Test Compound after 4 h [F(t = 4 h) × 100/F(t = 0 h)]” value (“Stability pH7.4: % Test Compound” for short) in series [2] is 32%.
On to `CCOc1cc(F)c(Cn2nc(-c3ncc(OCCCOC(=O)[C@H](C)NC(=O)[C@@H](N)CCCCN)c(Nc4ccnc(NC(C)=O)c4)n3)c3ccccc32)c(F)c1` [Example 4-1-2, 3-[(4-{[2-(acetylamino)pyridin-4-yl]amino}-2-[1-(4-ethoxy-2,6-difluorobenzyl)-1H-indazol-3-yl]pyrimidin-5-yl)oxy]propyl L-lysyl-L-alaninate, salt with trifiuoroaceticacid], for which, in series [2], the “Stability pH4: % Test Compound after 4 h” value came to 100% and the “Stability pH7.4: % Test Compound” value came to 30%.
For the molecule `CCOc1cc(F)c(Cn2nc(-c3ncc(OCCCOC(=O)[C@H](C)NC(=O)[C@H](N)CCCCN)c(Nc4ccnc(NC(C)=O)c4)n3)c3ccccc32)c(F)c1` [Example 4-1-3, 3-[(4-{[2-(acetylamino)pyridin-4-yl]amino}-2-[1-(4-ethoxy-2,6-difluorobenzyl)-1H-indazol-3-yl]pyrimidin-5-yl)oxy]propyl D-lysyl-L-alaninate, salt with trifiuoroaceticacid], the IC50 is 1.1 nM in series [1] (Time 15 min); 0.65 nM in series [1] (Time 30 min); 0.42 nM in series [1] (Time 60 min); 0.27 nM in series [1] (Time 90 min); 0.25 nM in series [1] (Time 120 min); 0.2 nM in series [1] (Time 240 min). In series [1] (Time 1440 min), the IC50 turned out to be 0.17 nM. Also, the recovery at 60 min, 0.2 mg/mL in series [2] was found to be 75%. The recovery at 120 min, 0.2 mg/mL in series [2] turned out to be 56%. For the same molecule, the recovery at 240 min, 0.2 mg/mL in series [2] was 31%. Besides, in series [2], the recovery at 1440 min, 0.2 mg/mL is 0%. Also, the “Stability pH4: % Test Compound after 4 h” value in series [2] turned out to be 100%. The “Stability pH7.4: % Test Compound” value in series [2] is given as 31%.
For `CCOc1cc(F)c(Cn2nc(-c3ncc(OCCCOC(=O)[C@H](C)NC(=O)[C@@H](N)CCCNC(=N)N)c(Nc4ccnc(NC(C)=O)c4)n3)c3ccccc32)c(F)c1` [Example 4-1-4, 3-[(4-{[2-(acetylamino)pyridin-4-yl]amino}-2-[1-(4-ethoxy-2,6-difluorobenzyl)-1H-indazol-3-yl]pyrimidin-5-yl)oxy]propyl L-arginyl-L-alaninate, salt with trifiuoroaceticacid], the IC50 in series [1] (Time 15 min) came to 2.8 nM; in series [1] (Time 30 min) it was 0.58 nM; in series [1] (Time 60 min), 0.61 nM; in series [1] (Time 90 min), 0.55 nM; in series [1] (Time 120 min), 0.54 nM; in series [1] (Time 240 min), 0.32 nM. The IC50 in series [1] (Time 1440 min) stood at 0.33 nM. In series [2], the recovery at 60 min, 0.2 mg/mL was determined as 86%. Also, the recovery at 120 min, 0.2 mg/mL in series [2] came out at 73%. Moreover, the recovery at 240 min, 0.2 mg/mL in series [2] was 53%. In addition, in series [2], the recovery at 1440 min, 0.2 mg/mL worked out at 3%. For the same molecule, the “Stability pH4: % Test Compound after 4 h” value in series [2] is 100%. In addition, in series [2], the “Stability pH7.4: % Test Compound” value is 53%.
For `CCOc1cc(F)c(Cn2nc(-c3ncc(OCCCOC(=O)[C@H](C)NC(=O)[C@H](N)CCCCN)c(Nc4cc(C)ncc4C)n3)c3ccccc32)c(F)c1` [Example 4-1-6, 3-({4-[(2,5-dimethylpyridin-4-yl)amino]-2-[1-(4-ethoxy-2,6-difluorobenzyl)-1H-indazol-3-yl]pyrimidin-5-yl}oxy)propyl D-lysyl-L-alaninate, salt with trifluoroaceticacid], in series [2], the “Stability pH4: % Test Compound after 4 h” value is listed as 101% and the “Stability pH7.4: % Test Compound” value came out at 53%.
As for `CCOc1cc(F)c(Cn2nc(-c3ncc(OCCCOC(=O)[C@H](C)NC(=O)[C@@H](N)CCCCN)c(Nc4cc(C)ncc4C)n3)c3ccccc32)c(F)c1` [Example 4-1-7, 3-({4-[(2,5-dimethylpyridin-4-yl)amino]-2-[1-(4-ethoxy-2,6-difluorobenzyl)-1H-indazol-3-yl]pyrimidin-5-yl}oxy)propyl L-lysyl-L-alaninate, salt with trifluoroaceticacid], in series [2], the “Stability pH4: % Test Compound after 4 h” value was 99% and the “Stability pH7.4: % Test Compound” value stood at 43%.
Consider `CCOc1cc(F)c(Cn2nc(-c3ncc(OCCCOC(=O)[C@H](C)NC(=O)[C@@H](N)CCCNC(=N)N)c(Nc4ccncc4Cl)n3)c3ccccc32)c(F)c1` [Example 4-1-8, 3-({4-[(3-chloropyridin-4-yl)amino]-2-[1-(4-ethoxy-2,6-difluorobenzyl)-1H-indazol-3-yl]pyrimidin-5-yl}oxy)propyl L-arginyl-L-alaninate], for which, in series [2], the “Stability pH4: % Test Compound after 4 h” value was determined as 100% and the “Stability pH7.4: % Test Compound” value is reported as 56%.
In the same order, the values of `CCOc1cc(F)c(Cn2nc(-c3ncc(OCCCOC(=O)[C@@H](NC(=O)[C@@H](N)CCCCN)C(C)C)c(Nc4ccncc4Cl)n3)c3ccccc32)c(F)c1` [Example 4-1-9, 3-({4-[(3-chloropyridin-4-yl)amino]-2-[1-(4-ethoxy-2,6-difluorobenzyl)-1H-indazol-3-yl]pyrimidin-5-yl}oxy)propyl L-lysyl-L-valinate] are 99% and 99%.

As a reminder, the IC50 is the concentration at which inhibition is half-maximal.

(Values after US20170305882A1, “BENZYL SUBSTITUTED INDAZOLES AS BUB1 KINASE INHIBITORS” (Bayer Pharma Aktiengesellschaft, priority 2014, published 2017).)
